According to US10144738B2, “Pyrazolo[1,5-A]PYRAZIN-4-YL derivatives” (Pfizer Inc., priority 2016, dated 2018):

Legend:
[1] = target: TYK2 (Homo sapiens (Human), UniProt P29597); test: JAK Caliper enzyme assay at 1 mM ATP (TYK2); assay type: biochemical; conditions: recombinant human kinase domain, Caliper mobility shift
Procedure: (§1) Compounds of the invention were evaluated by in vitro methods to determine their respective ability to inhibit the JAK kinases (TYK2, JAK1, JAK2, JAK3).
(§2) The human JAK inhibitory activity was determined by using a microfluidic assay to monitor phosphorylation of a synthetic peptide by the recombinant human kinase domain of each of the four members of the JAK family, JAK1, JAK2, JAK3 and TYK2. […] Each assay condition was optimized for enzyme concentration and room temperature incubation time to obtain a conversion rate of 20% to 30% phosphorylated peptide product. Reactions were terminated by the addition of stop buffer containing EDTA. Utilizing the LabChip 3000 mobility shift technology (Caliper Life Science), each assay reaction was sampled to determine the level of phosphorylation. This technology is separation-based, allowing direct detection of fluorescently labeled substrates and products. Separations are controlled by a combination of vacuum pressure and electric field strength optimized for each peptide substrate.
(§3) JAK Caliper Enzyme Assay at 1 mM ATP
(§4) Compounds were added to a 384-well plate. Reaction mixtures contained 10 mM HEPES, pH 7.4, 10 mM MgCl2, 0.01% BSA, 0.0005% Tween 20, 1 mM ATP and 1 μM peptide substrate. […] The assays were initiated by the addition of 20 nM JAK1, 1 nM JAK2, 1 nM JAK or 1 nM TYK2 enzyme and were incubated at room temperature for three hours for JAK1, 60 minutes for JAK2, 75 minutes for JAK3 or 135 minutes for TYK2. Enzyme concentrations and incubation times were optimized for each new enzyme preps and were modified slightly over time to ensure 20% to 30% phosphorylation. The assays were stopped with 15 μL of 180 mM HEPES, pH 7.4, 20 mM EDTA, and 0.2% Coating Reagent 3. The assay plates were placed on a Caliper Life Science LC3000 instrument, and each well was sampled using appropriate separation conditions to measure the unphosphorylated and phosphorylated peptide.
(§5) The data was collected using the HTS Well Analyzer software from Caliper Life Sciences. The data output for data analysis is the percent product converted calculated on peak height (Equation 1). % product converted=100*((product)/(product+substrate)) Equation 1: […]
(§6) The percent effect at each compound concentration was calculated based on the positive and negative control well contained within each assay plate (Equation 2). […] The negative control wells contained DMSO alone (at the same concentration as the compound wells) that was used to set the baseline activity in the assay (i.e., uninhibited JAK1, JAK2, JAK3 or TYK2). % effect=100*((sample well−negative control)/(positive control-negative control)) Equation 2: The percent effect was plotted against the compound concentration compound.

[2] = test system: IL-12 induced STAT4 phosphorylation (IL-12 signals through TYK2 and JAK2); test: Human Whole Blood IL-12 Induced STAT4 Phosphorylation Assay; assay type: cell-based; conditions: Lymphocyte, IL-12 5 ng/mL, pSTAT4 in lymphocytes by flow cytometry, read-out: HWB IL-12 IC50
Procedure: Selected compounds were assessed for their ability to inhibit IL-12 signaling in a human whole blood flow cytometry assay. IL-12 signals through TYK2 and JAK2. Human Whole Blood IL-12 Induced STAT4 Phosphorylation Assay
Test articles were prepared as 30 mM stocks in DMSO. An 11-point 2.5 dilution series was created in DMSO with a top concentration of 10 mM. Further dilution was done by adding 4 μL of the above test article solutions into 96 μL of PBS with a top concentration of 400 μM. […] Blood was warmed to 37° C. prior to use. Human whole blood was aliquoted ([…]) in 96-well, deep-well, V-bottom plates and treated with compounds at 11 different concentrations (0.2% DMSO final) at 37° C. for 60 minutes. This was followed by a challenge with IL-12 ([…]; final, 5 ng/mL) for 15 minutes. Samples were treated with warm 1× Lyse/Fix buffer ([…]) to terminate activation and further incubated at 37° C. for 20 minutes to lyse red blood cells. Plates were centrifuged at 300×g for 5 minutes, supernatant was aspirated, and cells were washed with […] of staining buffer (PBS containing 0.5% fetal bovine serum and 0.01% sodium azide). The washed cell pellets were resuspended with […] of pre-chilled 90% methanol, and incubated at 4° C. for 30 minutes. Plates were centrifuged at 300×g for 5 minutes, supernatant containing 90% methanol was aspirated, and cells were washed with […]/well of staining buffer. Cell pellets were resuspended in staining buffer containing anti-pSTAT4-AlexaFluor647 (1 to 150 dilution, […]), and incubated at room temperature in the dark overnight.
Samples were transferred to 96-well U-bottom plates and flow cytometric analysis was performed on a FACSCalibur or LSRFortessa equipped with a HTS plate loader (BD Biosciences). The lymphocyte population was gated for histogram analysis of pSTAT4. Background fluorescence was defined using unstimulated cells and a gate was placed at the foot of the peak to include ˜0.5% gated population. The histogram statistical analysis was performed using CellQuestO Pro version 5.2.1 (BD Biosciences) or FACSDiva version 6.2 (BD Biosciences) software. Relative fluorescence unit (RFU), which measures the level of phospho STAT4, was calculated by multiplying the percent positive population and its mean fluorescence. Data from 11 compound concentrations (singlicate at each concentration) was normalized as a percentage of control based on the formula: % of Control=100×(A−B)/(C−B) where A is the RFU from wells containing compound and IL-12, B is the RFU from wells without IL-12 and compound (minimum fluorescence) and C is the RFU from wells containing only IL-12 (maximum fluorescence). Inhibition curves and IC50 values were determined using the Prism version 5 software (GraphPad, La Jolla, Calif.).

[3] = target: JAK2 (Homo sapiens (Human), UniProt O60674); test: JAK Caliper enzyme assay at 1 mM ATP (JAK2); assay type: biochemical; conditions: recombinant human kinase domain, Caliper mobility shift
Sequence of JAK2 (O60674 849-1124): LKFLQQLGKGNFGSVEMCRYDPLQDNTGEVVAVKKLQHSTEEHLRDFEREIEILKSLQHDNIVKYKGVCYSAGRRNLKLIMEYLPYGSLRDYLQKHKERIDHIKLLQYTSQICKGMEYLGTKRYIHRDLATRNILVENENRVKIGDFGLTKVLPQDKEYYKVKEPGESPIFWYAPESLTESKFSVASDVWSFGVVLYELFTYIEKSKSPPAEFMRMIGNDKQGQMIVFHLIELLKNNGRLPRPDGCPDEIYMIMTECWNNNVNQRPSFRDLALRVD
Procedure: as §1, §2, §3, §4, §5, §6

[4] = target: JAK3 (Homo sapiens (Human), UniProt P52333); test: JAK Caliper enzyme assay at 1 mM ATP (JAK3); assay type: biochemical; conditions: recombinant human kinase domain, Caliper mobility shift
Sequence of JAK3 (P52333 822-1111): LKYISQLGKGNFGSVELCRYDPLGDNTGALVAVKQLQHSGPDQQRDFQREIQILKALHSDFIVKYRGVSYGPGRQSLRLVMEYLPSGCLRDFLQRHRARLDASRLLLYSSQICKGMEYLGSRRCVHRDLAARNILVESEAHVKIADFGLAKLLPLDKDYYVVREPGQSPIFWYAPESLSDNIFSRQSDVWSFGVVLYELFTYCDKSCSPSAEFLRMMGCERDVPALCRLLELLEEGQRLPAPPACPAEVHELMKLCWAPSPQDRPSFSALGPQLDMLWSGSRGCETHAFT
Procedure: as §1, §2, §3, §4, §5, §6

[5] = target: JAK1 (Homo sapiens (Human), UniProt P23458); test: JAK Caliper enzyme assay at 1 mM ATP (JAK1); assay type: biochemical; conditions: recombinant human kinase domain, Caliper mobility shift
Sequence of JAK1 (P23458 875-1153): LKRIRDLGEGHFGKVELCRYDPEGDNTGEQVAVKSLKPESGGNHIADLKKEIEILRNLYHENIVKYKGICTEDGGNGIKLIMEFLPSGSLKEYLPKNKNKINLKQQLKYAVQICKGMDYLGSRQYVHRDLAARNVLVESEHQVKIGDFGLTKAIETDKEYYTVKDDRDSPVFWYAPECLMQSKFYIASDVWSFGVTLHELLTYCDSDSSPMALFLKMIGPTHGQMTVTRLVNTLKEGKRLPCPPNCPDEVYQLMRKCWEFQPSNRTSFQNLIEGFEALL
Procedure: Compounds of the invention were evaluated by in vitro methods to determine their respective ability to inhibit the JAK kinases (TYK2, JAK1, JAK2, JAK3). The human JAK inhibitory activity was determined by using a microfluidic assay to monitor phosphorylation of a synthetic peptide by the recombinant human kinase domain of each of the four members of the JAK family, JAK1, JAK2, JAK3 and TYK2. […] Reactions were terminated by the addition of stop buffer containing EDTA. Utilizing the LabChip 3000 mobility shift technology (Caliper Life Science), each assay reaction was sampled to determine the level of phosphorylation. This technology is separation-based, allowing direct detection of fluorescently labeled substrates and products. Separations are controlled by a combination of vacuum pressure and electric field strength optimized for each peptide substrate. […] Compounds were added to a 384-well plate. […] Enzyme concentrations and incubation times were optimized for each new enzyme preps and were modified slightly over time to ensure 20% to 30% phosphorylation. […] The assay plates were placed on a Caliper Life Science LC3000 instrument, and each well was sampled using appropriate separation conditions to measure the unphosphorylated and phosphorylated peptide. The data was collected using the HTS Well Analyzer software from Caliper Life Sciences. […] The percent effect at each compound concentration was calculated based on the positive and negative control well contained within each assay plate (Equation 2). […] The percent effect was plotted against the compound concentration compound. […] Where max is the maximum asymptote (complete inhibition), min is the minimum asymptote (no inhibition) and s is the slope factor.

Sequence of TYK2 (P29597 897-1176): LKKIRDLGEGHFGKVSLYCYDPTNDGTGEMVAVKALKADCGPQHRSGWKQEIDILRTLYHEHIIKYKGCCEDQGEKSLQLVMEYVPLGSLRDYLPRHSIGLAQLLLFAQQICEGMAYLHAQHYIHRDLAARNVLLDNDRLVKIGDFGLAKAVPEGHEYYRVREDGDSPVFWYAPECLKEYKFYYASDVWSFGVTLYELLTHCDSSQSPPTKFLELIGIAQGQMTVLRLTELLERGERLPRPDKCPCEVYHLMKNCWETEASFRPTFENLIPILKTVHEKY

Structure (SMILES) | IC50 [1] | IC50 [2] | IC50 [3] | IC50 [4] | IC50 [5]
Cn1cc(-c2cn3nccc3c(-c3cnn([C@]4(CC#N)C[C@@H](C#N)C4)c3)n2)c(N)n1 [Example 23, (1r,3r)-3-(4-(6-(3-Amino-1-methyl-1H-pyrazol-4-yl)pyrazolo[1,5-a]pyrazin-4-yl)-1H-pyrazol-1-yl)-3-(cyanomethyl)cyclobutane-1-carbonitrile] | 9 nM | 34 nM | 26 nM | 9410 nM | 431 nM
Cc1cnn2cc(-c3cnn(C)c3)nc(-c3cnn([C@]4(CC#N)C[C@@H](C#N)C4)c3)c12 [Example 25, (1r,3r)-3-(Cyanomethyl)-3-(4-(3-methyl-6-(1-methyl-1H-pyrazol-4-yl)pyrazolo[1,5-a]pyrazin-4-yl)-1H-pyrazol-1-yl)cyclobutane-1-carbonitrile] | 23 nM | 59 nM | 99 nM | > 10000 nM | 319 nM
CO[C@H]1C[C@@](CC#N)(n2cc(-c3nc(-c4cc(CO)[nH]n4)cn4nccc34)cn2)C1 [Example 27, 2-((1 s,3r)-1-(4-(6-(5-(Hydroxymethyl)-1H-pyrazol-3-yl)pyrazolo[1,5-a]pyrazin-4-yl)-1H-pyrazol-1-yl)-3-methoxycyclobutyl)acetonitrile] | 24 nM | 86 nM | 171 nM | > 10000 nM | 737 nM
CO[C@H]1C[C@](CC#N)(n2cc(-c3nc(-c4cc(N)[nH]n4)cn4nccc34)cn2)C1 [Example 30, 2-((1r,3s)-1-(4-(6-(3-Amino-1H-pyrazol-5-yl)pyrazolo[1,5-a]pyrazin-4-yl)-1H-pyrazol-1-yl)-3-methoxycyclobutyl)acetonitrile] | 7 nM | 46 nM | 71 nM | > 10000 nM | 174 nM
CO[C@H]1C[C@@](CC#N)(n2cc(-c3nc(-c4cc(C(N)=O)n[nH]4)cn4nccc34)cn2)C1 [Example 32] | 17 nM | 130 nM | 339 nM | > 10000 nM | 2250 nM
